Source: patent US8946195B2, “Bicyclic methyl amine derivatives as sphingosine-1 phosphate receptors modulators” (Allergan, Inc., priority 2011, dated 2015)

Biological target: T1, human S1P1 receptor (Homo sapiens, UniProt P21453)
T1 construct: expressed in transfected cells; membranes used
Assay: GTP γ35S binding assay for S1P1 activity
Type: biochemical
Settings: membranes of cells stably expressing the S1P1 receptor, agonist potency
Description: Compounds were synthesized and tested for S1P1 activity using the GTP γ^35S binding assay. These compounds may be assessed for their ability to activate or block activation of the human S1P1 receptor in cells stably expressing the S1P1 receptor.
GTP γ35S binding was measured in the medium containing (mM) HEPES 25, pH 7.4, MgCl2 10, NaCl 100, dithitothreitol dithitothreitol 0.5, digitonin 0.003%, 0.2 nM GTP γ35S, and 5 μg membrane protein in a volume of 150 μl. Test compounds were included in the concentration range from 0.08 to 5,000 nM unless indicated otherwise. Membranes were incubated with 100 μM 5′-adenylylimidodiphosphate adenylylimmidodiphosphate for 30 min, and subsequently with 10 μM GDP for 10 min on ice. Drug solutions and membrane were mixed, and then reactions were initiated by adding GTP γ35S and continued for 30 min at 25° C. Reaction mixtures were filtered over Whatman GF/B filters under vacuum, and washed three times with 3 mL of ice-cold buffer (HEPES 25, pH7.4, MgCl2 10 and NaCl 100). Filters were dried and mixed with scintillant, and counted for 35S activity using a β-counter. Agonist-induced GTP γ35S binding was obtained by subtracting that in the absence of agonist. Binding data were analyzed using a non-linear regression method. In case of antagonist assay, the reaction mixture contained 10 nM […] in the presence of test antagonist at concentrations ranging from 0.08 to 5000 nM.

T1 sequence (P21453 whole entry): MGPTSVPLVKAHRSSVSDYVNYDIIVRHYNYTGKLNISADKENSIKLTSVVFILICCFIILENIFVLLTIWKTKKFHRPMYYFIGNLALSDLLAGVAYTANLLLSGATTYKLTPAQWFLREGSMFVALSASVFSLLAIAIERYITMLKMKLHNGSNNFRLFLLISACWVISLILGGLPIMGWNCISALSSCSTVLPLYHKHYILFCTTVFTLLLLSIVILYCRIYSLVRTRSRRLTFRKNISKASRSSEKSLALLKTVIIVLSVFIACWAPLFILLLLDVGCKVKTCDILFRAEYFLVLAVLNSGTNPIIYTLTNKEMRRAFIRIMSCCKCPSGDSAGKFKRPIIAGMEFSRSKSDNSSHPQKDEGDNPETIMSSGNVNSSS

| EC50 | Compound |
| --- | --- |
| 0.17 µM | CCCCCCc1ccc(-c2ccc(CNCCCP(=O)(O)O)c3occc23)cc1 [Compound 2, [3-({[4-(4-hexylphenyl)-1-benzofuran-7-yl]methyl}amino)propyl]phosphonic acid] |
| 0.0444 µM | CCCCCCc1ccc(-c2ccc(CNCCCP(=O)(O)O)c3ccoc23)cc1 [Compound 3, [3-({[7-(4-hexylphenyl)-1-benzofuran-4-yl]methyl}amino)propyl]phosphonic acid] |
| 0.0371 µM | CCCCCCc1ccc(-c2ccc(CNCCCP(=O)(O)O)c3c2CCC3)cc1 [Compound 1, [3-({[7-(4-hexylphenyl)-2,3-dihydro-1H-inden-4-yl]methyl}amino)propyl]phosphonic acid] |
